{"source": "paper PMC9231089", "about": "“Sorafenib Chemosensitization by Caryophyllane Sesquiterpenes in Liver, Biliary, and Pancreatic Cancer Cells: The Role of STAT3/ABC Transporter Axis” (Pharmaceutics, 2022)", "key": {"HepG2 [1]": {"test_system": "HepG2", "experiment": "MTT cytotoxicity assay, substances alone, HepG2", "format": "cell-based, human", "procedure": "(§1) Suitable vehicle controls were also included.\n(§2) The effect of the treatments on cell viability was measured by the MTT assay as previously described. A higher than 30% reduction of cell viability was considered as a significant cytotoxic effect."}, "HepG2 [2]": {"test_system": "HepG2", "experiment": "Combination assay with sorafenib (MTT), HepG2", "format": "cell-based, human", "settings": "for increase of sorafenib cytotoxicity in combination: verapamil/MK571 1 µg/mL or sesquiterpenes 10 µg/mL", "procedure": "as §1\n(§3) The type of interaction (synergistic, additive, or antagonistic) among sorafenib and test substances or positive controls was evaluated by measuring the reversal ratio value (RR), combination index (CI), and isobolographic analysis (IB), as previously described."}, "[3]": {"test_system": "noncancerous H69 cholangiocytes", "experiment": "MTT cytotoxicity assay (tolerability), substances alone, H69", "format": "cell-based, human", "settings": "for higher cytotoxicity in normal H69 cells than in cancerous Mz-ChA-1 cholangiocytes (IC50 comparison): H69 vs Mz-ChA-1; for CC50: Homo sapiens, H69 noncancerous cholangiocytes, substance alone, 4 h exposure + 72 h recovery, read-out: IC50 (CL)", "procedure": "as §1, §2"}, "Mz-ChA-1 [4]": {"test_system": "Mz-ChA-1", "experiment": "MTT cytotoxicity assay, substances alone, Mz-ChA-1", "format": "cell-based, human", "settings": "for IC50: Homo sapiens, substance alone, 4 h exposure + 72 h recovery", "procedure": "as §1, §2"}, "phospho(Tyr705)-STAT3": {"test_system": "phospho(Tyr705)-STAT3", "experiment": "Western blotting of STAT3 phosphorylation in Bx-PC3 cells", "format": "cell-based, human", "settings": "for increase of STAT3 phosphorylation at tyrosine 705: substance alone, sorafenib and sesquiterpenes 10 μg/mL, verapamil/MK571 1 μg/mL, normalized to total STAT3", "procedure": "as §1\nConfluent cells were seeded in 6-well plates (5 × 10^5 cells/well), treated as described above, then harvested by centrifugation and washed in PBS. After lysis with a suitable buffer, the Western blotting analysis was carried out, according to previously published methods. […] The levels of phospho(Tyr705)-STAT3 were normalized against total STAT3 ones."}, "Mz-ChA-1 [5]": {"test_system": "Mz-ChA-1", "experiment": "Combination assay with sorafenib (MTT), Mz-ChA-1", "format": "cell-based, human", "procedure": "as §1, §3"}, "Bx-PC3 [6]": {"test_system": "Bx-PC3", "experiment": "MTT cytotoxicity assay, substances alone, Bx-PC3", "format": "cell-based, human", "settings": "for IC50: Homo sapiens, BXPC-3, substance alone, 4 h exposure + 72 h recovery", "procedure": "as §1, §2"}, "Bx-PC3 [7]": {"test_system": "Bx-PC3", "experiment": "Combination assay with sorafenib (MTT), Bx-PC3", "format": "cell-based, human", "procedure": "as §1, §3"}, "[8]": {"test_system": "noncancerous H69 cholangiocytes", "experiment": "Combination assay with sorafenib (MTT), tolerability in H69", "format": "cell-based, human", "settings": "combination with 1 µg/mL and 10 µg/mL sorafenib, verapamil/MK571 1 µg/mL", "procedure": "as §1, §3"}, "Bx-PC3 cells": {"test_system": "Bx-PC3 cells", "experiment": "Wound healing assay (cell migration)", "format": "cell-based, human", "procedure": "To evaluate the effect of caryophyllane sesquiterpenes, both alone and in combination with sorafenib, on the cell migration rate, the wound healing assay was performed. Bx-PC3 cells were seeded in 24-well plate at a density of 2.5 × 10^5 cells/well. After 24 h, the wound was created by scratching the well bottom with a 100 μL pipette tip, then the cells were treated under the scheduled conditions and images were captured at 0, 4, and 72 h using a Cytation 1 Cell Imaging Multi-Mode Reader. […] Results were expressed as wound area percentage with respect to that of the same well at zero time. The positive controls were also included."}, "MRP2 [9]": {"test_system": "MRP2", "experiment": "Immunofluorescence analysis in Bx-PC3 cells, MRP2", "format": "cell-based, human", "settings": "substance alone", "procedure": "as §1\n(§4) The analysis was performed according to previously published methods. Confluent cells were seeded in 24-well plates (2 × 10^4 cells/well), allowed to adhere overnight, then treated as described above. After treatment, cells were fixed in pure methanol and washed with 4% bovine serum albumin (BSA) and PBS + Tween 20 (PBS-T) for 1 h. […] The expression and localization of Pgp, MRP1, and MRP2 pumps into cells were analyzed by using a Cytation 1 Cell Imaging Multimode Reader (Biotech, USA)."}, "MDR1": {"test_system": "MDR1", "experiment": "RT-qPCR gene expression in Bx-PC3 cells, MDR1", "settings": "substance alone, 4 h exposure + 72 h recovery", "quoted_text": "(§5) Confluent cells were treated with the test substances, both alone or in combination with the anticancer drug, for 4 h, then washed and incubated for a further 72 h (Figure 1), according to previously published protocols [20]. […] Suitable vehicle controls were also included.\n(§6) The results of mRNA abundance for the targeted genes in each sample were normalized on the basis of GAPDH (Bio-Rad, Hercules, CA, USA) mRNA. Data are expressed as 2^−ΔCt, calculated using the CFX Manager software (Bio-Rad)."}, "MRP2 [10]": {"test_system": "MRP2", "experiment": "RT-qPCR gene expression in Bx-PC3 cells, MRP2", "settings": "substance alone", "quoted_text": "as §5, §6"}, "MRP1 [11]": {"test_system": "MRP1", "experiment": "Immunofluorescence analysis in Bx-PC3 cells, MRP1", "format": "cell-based, human", "settings": "substance alone, 10 µg/mL", "procedure": "as §1, §4"}, "MRP1 [12]": {"test_system": "MRP1", "experiment": "RT-qPCR gene expression in Bx-PC3 cells, MRP1", "format": "cell-based, human", "settings": "substance alone", "source_text": "as §1"}, "Pgp": {"test_system": "Pgp", "experiment": "Immunofluorescence analysis in Bx-PC3 cells, Pgp", "format": "cell-based, human", "settings": "substance alone, sorafenib and sesquiterpenes 10 µg/mL, verapamil 1 µg/mL", "procedure": "as §1, §4"}}, "note": "Structures can show the parent of a compound that is named as a salt.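 For increase of sorafenib cytotoxicity in combination in this document: percent increase of sorafenib cell viability inhibition versus sorafenib alone.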", "data": [{"smiles": "CN(C)C(=O)CCSC(SCCC(=O)O)c1cccc(/C=C/c2ccc3ccc(Cl)cc3n2)c1", "note": "(stereo not drawn) [MK571, reference compound]", "values": [{"measurement": "IC50 higher than that of sorafenib", "setting": "HepG2 [1]; HepG2", "value": "comparable"}, {"measurement": "inhibition of cell viability", "setting": "HepG2 [1]; HepG2, 50 µg/mL", "value": 50, "unit": "%"}, {"measurement": "reduction of sorafenib IC50 in the presence of the substance", "setting": "HepG2 [2]", "value": "~6", "unit": "fold"}, {"measurement": "increase of sorafenib cytotoxicity in combination", "setting": "HepG2 [2]; sorafenib 1 µg/mL", "value": "~23", "unit": "%"}, {"measurement": "increase of sorafenib cytotoxicity in combination", "setting": "HepG2 [2]; sorafenib 10 µg/mL", "value": "~40", "unit": "%"}, {"measurement": "higher cytotoxicity in normal H69 cells than in cancerous Mz-ChA-1 cholangiocytes (IC50 comparison)", "setting": "[3]", "value": "~2.9", "unit": "fold"}, {"measurement": "CC50", "setting": "[3]", "value": 32.6, "unit": "µg/mL"}, {"measurement": "IC50", "setting": "Mz-ChA-1 [4]; Mz-ChA-1", "value": 94.6, "unit": "µg/mL"}, {"measurement": "IC50 higher than that of sorafenib", "setting": "Mz-ChA-1 [4]; Mz-ChA-1", "value": 1.2, "unit": "fold"}, {"measurement": "inhibition of cell viability", "setting": "Mz-ChA-1 [4]; Mz-ChA-1, 50 µg/mL", "value": "approximately 15%"}, {"measurement": "inhibition of cell viability", "setting": "Mz-ChA-1 [4]; Mz-ChA-1, 250 µg/mL", "value": "~90", "unit": "%"}, {"measurement": "increase of STAT3 phosphorylation at tyrosine 705", "setting": "phospho(Tyr705)-STAT3", "value": 1.5, "unit": "fold"}, {"measurement": "reduction of phospho(Tyr705)-STAT3 with respect to sorafenib", "setting": "phospho(Tyr705)-STAT3; substance in combination with sorafenib 10 μg/mL", "value": 3.7, "unit": "fold"}, {"measurement": "reduction of sorafenib IC50 in the presence of the substance", "setting": "Mz-ChA-1 [5]", "value": 1.7, "unit": "fold"}, {"measurement": "increase of sorafenib cytotoxicity in combination", "setting": "Mz-ChA-1 [5]; sorafenib 1 µg/mL, verapamil/MK571 1 µg/mL", "value": 3, "unit": "%"}, {"measurement": "increase of sorafenib cytotoxicity in combination", "setting": "Mz-ChA-1 [5]; sorafenib 10 µg/mL, verapamil/MK571 1 µg/mL or sesquiterpenes 10 µg/mL", "value": 20, "unit": "%"}, {"measurement": "IC50 higher than that of sorafenib", "setting": "Bx-PC3 [6]", "value": 2.5, "unit": "fold"}, {"measurement": "inhibition of cell viability", "setting": "Bx-PC3 [6]; 50 µg/mL", "value": "~33", "unit": "%"}, {"measurement": "inhibition of cell viability", "setting": "Bx-PC3 [6]; 250 µg/mL", "value": "~90", "unit": "%"}, {"measurement": "IC50", "setting": "Bx-PC3 [6]", "value": 78.5, "unit": "µg/mL"}, {"measurement": "reduction of sorafenib IC50 in the presence of the substance", "setting": "Bx-PC3 [7]", "value": "~3.9", "unit": "fold"}, {"measurement": "increase of sorafenib cytotoxicity in combination", "setting": "Bx-PC3 [7]; sorafenib 1 µg/mL, verapamil/MK571 1 µg/mL or sesquiterpenes 10 µg/mL", "value": "~10", "unit": "%"}, {"measurement": "increase of sorafenib cytotoxicity in combination", "setting": "Bx-PC3 [7]; sorafenib 10 µg/mL, verapamil/MK571 1 µg/mL", "value": "~47", "unit": "%"}, {"measurement": "reduction of cell viability with respect to sorafenib alone", "setting": "[8]", "value": "~15", "unit": "%"}, {"measurement": "wound area / cell migration after 72 h", "setting": "Bx-PC3 cells; substance alone, sesquiterpenes 10 µg/mL, verapamil/MK571 1 µg/mL", "value": "almost complete closure of wound area"}, {"measurement": "increase of wound area", "setting": "Bx-PC3 cells; substance in combination with sorafenib 10 µg/mL, reference and time not stated", "value": "approximately 3.7 fold"}, {"measurement": "effect on MRP2 transporter expression (immunofluorescence)", "setting": "MRP2 [9]", "value": "significantly lowered"}]}, {"smiles": "CNC(=O)c1cc(Oc2ccc(NC(=O)Nc3ccc(Cl)c(C(F)(F)F)c3)cc2)ccn1", "note": "[Sorafenib, sorafenib tosylate]", "values": [{"measurement": "inhibition of cell viability", "setting": "HepG2 [1]; HepG2, 10 µg/mL", "value": "approximately 10%"}, {"measurement": "inhibition of cell viability", "setting": "HepG2 [1]; HepG2, 500 µg/mL", "value": 95, "unit": "%"}, {"measurement": "IC50 higher with respect to Bx-PC3 cells", "setting": "HepG2 [1]; HepG2 vs Bx-PC3", "value": "approximately 1.5 fold"}, {"measurement": "higher cytotoxicity in normal H69 cells than in cancerous Mz-ChA-1 cholangiocytes (IC50 comparison)", "setting": "[3]", "value": "approximately 1.5 fold"}, {"measurement": "CC50", "setting": "[3]", "value": 50.3, "unit": "µg/mL"}, {"measurement": "IC50", "setting": "Mz-ChA-1 [4]; Mz-ChA-1", "value": 76.1, "unit": "µg/mL"}, {"measurement": "inhibition of cell viability", "setting": "Mz-ChA-1 [4]; Mz-ChA-1, 50 µg/mL", "value": "about 30%"}, {"measurement": "inhibition of cell viability", "setting": "Mz-ChA-1 [4]; Mz-ChA-1, 250 µg/mL", "value": "about 90%"}, {"measurement": "IC50 higher with respect to Bx-PC3 cells", "setting": "Mz-ChA-1 [4]; Mz-ChA-1 vs Bx-PC3", "value": "~2.4", "unit": "fold"}, {"measurement": "increase of MDR1 gene expression with respect to control", "setting": "MDR1", "value": 3.6, "unit": "fold"}, {"measurement": "increase of STAT3 phosphorylation at tyrosine 705", "setting": "phospho(Tyr705)-STAT3", "value": 4.6, "unit": "fold"}, {"measurement": "inhibition of cell viability", "setting": "Bx-PC3 [6]; 50 µg/mL", "value": 70, "unit": "%"}, {"measurement": "IC50", "setting": "Bx-PC3 [6]", "value": 31, "unit": "µg/mL"}, {"measurement": "cell viability at the higher tested concentrations", "setting": "Bx-PC3 [6]; concentrations higher than 50 µg/mL", "value": "almost completely inhibited"}, {"measurement": "decrease of MRP2 gene expression", "setting": "MRP2 [10]", "value": "~2", "unit": "fold"}, {"measurement": "change of wound area after 4 h", "setting": "Bx-PC3 cells; sorafenib 10 µg/mL alone", "value": "slight reduction"}, {"measurement": "increase of wound area at 72 h", "setting": "Bx-PC3 cells; sorafenib 10 µg/mL alone", "value": 1.2, "unit": "fold"}, {"measurement": "effect on MRP2 transporter expression (immunofluorescence)", "setting": "MRP2 [9]", "value": "significantly lowered"}, {"measurement": "lowering of MRP1 expression compared to control (immunofluorescence)", "setting": "MRP1 [11]", "value": 1.2, "unit": "fold"}, {"measurement": "decrease of MRP1 gene expression", "setting": "MRP1 [12]", "value": "~2", "unit": "fold"}, {"measurement": "effect on Pgp expression (immunofluorescence)", "setting": "Pgp", "value": "slight increase"}]}]}
